Source: ChEMBL document CHEMBL1201862, “PubChem BioAssay data set” (2004)
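Interpolation was linear, between the two tested concentrations surrounding the appropriate level; five concentrations were tested over 48 hours in 96-well plates. At the GI50, growth is halved.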 Active and inactive are the calls of the source. No stated cut-off is given here; in the data, active = GI50 up to about 1.1 µM and inactive = higher.

Legend:
Assay in all cases: growth of human tumour cells (NCI), 48 h
[1] = system: A498
[2] = system: ACHN
[3] = system: COLO 205
[4] = system: EKVX
[5] = system: Hs-578T
[6] = system: KM12
[7] = system: LOX IMVI
[8] = system: M14
[9] = system: MCF7
[10] = system: MDA-MB-435
[11] = system: NCI-H23
[12] = system: NCI-H460
[13] = system: NCI/ADR-RES
[14] = system: SK-MEL-5
[15] = system: SN12C
[16] = system: SNB-19
[17] = system: SNB-75
[18] = system: U-251
[19] = system: HOP-92
[20] = system: SR

Row | Structure (SMILES) | GI50 [1] | GI50 [2] | GI50 [3] | GI50 [4] | GI50 [5] | GI50 [6] | GI50 [7] | GI50 [8] | GI50 [9] | GI50 [10] | GI50 [11] | GI50 [12] | GI50 [13] | GI50 [14] | GI50 [15] | GI50 [16] | GI50 [17] | GI50 [18] | GI50 [19] | GI50 [20]
1 | NC(=O)Nc1n[nH]c(-c2ccccc2)n1 | > 100 µM (inactive) | > 100 µM (inactive) | > 100 µM (inactive) | > 100 µM (inactive) | > 100 µM (inactive) | > 100 µM (inactive) | > 100 µM (inactive) | > 100 µM (inactive) | > 100 µM (inactive) | > 100 µM (inactive) | > 100 µM (inactive) | > 100 µM (inactive) | > 100 µM (inactive) | > 100 µM (inactive) | > 100 µM (inactive) | > 100 µM (inactive) | > 100 µM (inactive) | > 100 µM (inactive) |  | 
2 | COC(=O)[C@H](Cc1ccccc1)NP(=O)(OCCC#N)OCC1OC(n2cc(C)c(=O)[nH]c2=O)CC1N=[N+]=[N-] (stereo partly specified) |  | > 100 µM (inactive) | > 100 µM (inactive) | > 100 µM (inactive) | > 100 µM (inactive) | > 100 µM (inactive) | > 100 µM (inactive) | > 100 µM (inactive) | > 100 µM (inactive) | > 100 µM (inactive) | > 100 µM (inactive) | > 100 µM (inactive) | > 100 µM (inactive) | > 100 µM (inactive) | > 100 µM (inactive) | > 100 µM (inactive) | > 100 µM (inactive) | > 100 µM (inactive) | > 100 µM (inactive) | 
3 | C=CCN1CCC(OC(=O)C(O)(/C=C\CC)C2CCCC2)CC1 (stereo unspecified) | > 100 µM (inactive) | > 100 µM (inactive) | > 100 µM (inactive) | > 100 µM (inactive) | > 100 µM (inactive) |  | > 100 µM (inactive) | > 100 µM (inactive) | > 100 µM (inactive) | > 100 µM (inactive) | 8.71 µM (inactive) |  | > 100 µM (inactive) | > 100 µM (inactive) | > 100 µM (inactive) | > 100 µM (inactive) | > 100 µM (inactive) | > 100 µM (inactive) | 38.2 µM (inactive) | 
4 | C(=N\CCCN1CCN(CCC/N=C/c2cccc3ccccc23)CC1)/c1cccc2ccccc12 |  | > 100 µM (inactive) | > 100 µM (inactive) | 71.8 µM (inactive) | 18.8 µM (inactive) | > 100 µM (inactive) | 42.5 µM (inactive) | 8.99 µM (inactive) |  | 14.5 µM (inactive) | 90.8 µM (inactive) | > 100 µM (inactive) | 38.8 µM (inactive) | > 10 µM (inactive) | > 100 µM (inactive) | 60.7 µM (inactive) | 29.9 µM (inactive) | 36.2 µM (inactive) |  | 38 µM (inactive)
5 | O=c1c(Sc2c(SCSc3cnc4ccccc4c3Sc3c[nH]c4ccccc4c3=O)cnc3ccccc23)c[nH]c2ccccc12 |  | > 100 µM (inactive) | > 100 µM (inactive) | > 100 µM (inactive) | 62.8 µM (inactive) | > 100 µM (inactive) | > 100 µM (inactive) | > 100 µM (inactive) |  | 31.1 µM (inactive) | > 100 µM (inactive) | > 100 µM (inactive) | > 100 µM (inactive) | 39.6 µM (inactive) | > 100 µM (inactive) | 46.6 µM (inactive) | > 100 µM (inactive) | 25.5 µM (inactive) | 34 µM (inactive) | 0.877 µM (active)
6 | O=c1c(-c2ccccc2)c(SCCN2CCCC2)n(-c2ccccc2)c(=S)n1-c1ccccc1 | > 100 µM (inactive) | > 100 µM (inactive) | > 100 µM (inactive) | > 100 µM (inactive) | > 100 µM (inactive) | > 100 µM (inactive) | > 100 µM (inactive) | > 100 µM (inactive) | > 100 µM (inactive) | > 100 µM (inactive) | > 100 µM (inactive) | > 100 µM (inactive) | > 100 µM (inactive) |  | > 100 µM (inactive) | > 100 µM (inactive) | 34.4 µM (inactive) | > 100 µM (inactive) | 71.9 µM (inactive) | 
